For experiment [1], the target named is T1, glucocorticoid receptor (Homo sapiens, UniProt P04150).
T1 sequence (P04150 524-777 limits assumed): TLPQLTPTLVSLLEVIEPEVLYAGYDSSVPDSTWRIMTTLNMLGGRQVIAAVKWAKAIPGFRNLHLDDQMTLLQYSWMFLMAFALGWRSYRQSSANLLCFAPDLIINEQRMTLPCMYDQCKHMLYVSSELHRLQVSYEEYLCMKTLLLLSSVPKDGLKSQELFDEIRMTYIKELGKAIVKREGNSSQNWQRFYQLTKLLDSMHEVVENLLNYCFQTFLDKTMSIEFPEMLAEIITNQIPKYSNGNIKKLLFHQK
The experiment in a line: GRE reporter gene test (Experiment Example 2), HEK293T cells transfected with pGL4.35 and p-Bind GR Vector. It counts as cell-based. To be noted: for EC50: GRE reporter gene, HEK293T cells, 18-20 h incubation; for Emax: HEK-293T; for maximum agonistic activity (Emax): compared with dexamethasone, transfected HEK293T cells. How it is done: The compound of the present invention to be tested was formulated into a 1 mM solution with DMSO, and then subjected to 4-fold dilution at 10 concentration points using DMSO to obtain a 1000× mother liquor, with a final test concentration of 0.0000038-1 μM.
(§1) HEK293T cells (ATCC) were plated in a 100 mm culture dish at a density of 6*10^6 cells/culture dish, and cultured for 16 h under the conditions of 37° C. and 5% CO2. Plasmids (pGL4.35 [luc2P/9XGAL4 UAS/Hygro], p-Bind GR Vector, Promega) and Lipofectamine® 3000 (Invitrogen) were mixed, added into the culture dish, and then incubated for 5-6 h under the conditions of 37° C. and 5% CO2.
In a 384-well plate (PerkinElmer), 25 nL of the compound mother liquor was added, and then HEK293T cells transfected with plasmids were added at a density of 18000 cells/well (25 μL). The cells were incubated for 18-20 h under the conditions of 37° C. and 5% CO2.
After the incubation was ended, 25 μL of britelite plus luciferase assay reagent (PerkinElmer) was added, and then reading was performed using an Envision 2105 multimode reader (PerkinElmer).
(§2) The activity was calculated using the following formula, % activity=100*(signal of compound well−average signal of negative control well)/(average signal of positive control well−average signal of negative control well). […] Fitting calculation of EC50 was performed on % activity and the logarithmic concentration of the compound using Graphpad 8.0, Y=Bottom+(Top−Bottom)/(1+10^((Log EC50−X)*HillSlope)), wherein Y is % activity, and X is the logarithmic concentration of the compound.

Experiment [2] addresses T1, glucocorticoid receptor. The experiment can be described thus: GRE reporter gene test (Experiment Example 1), HEK293T cells transfected with pGL4.35 and p-Bind GR Vector. It counts as cell-based. To be noted: for EC50: GRE reporter gene, HEK293T cells, 18-20 h incubation; for Emax: HEK-293T, read-out: Emax; for maximum agonistic effect (Emax): compared with dexamethasone, transfected HEK293T cells. The procedure: The compound of the present invention to be tested was formulated into a 10 mM solution with DMSO, and then subjected to 4-fold dilution at 10 concentration points using DMSO to obtain a 1000× mother liquor, with a final test concentration of 0.000038-10 μM.
as §1
In a 384-well plate (PerkinElmer), 25 nL of the compound mother liquor was added, and then HEK293T cells transfected with plasmids were added at a density of 18000 cells/well. The cells were incubated for 18-20 h under the conditions of 37° C. and 5% CO2.
After the incubation was ended, 25 μL of britelite plus luciferase assay reagent (PerkinElmer) was added, and then reading was performed using an Envision 2105 multiplate reader (PerkinElmer).
as §2
In general terms: A reporter such as luciferase makes a cellular process visible.

One may read the EC50 as the concentration giving half of the maximal effect. Read a low EC50 as higher potency in that assay. The term Emax denotes the greatest response seen or fitted, relative to the assay's reference.

`C[C@]12C=CC(=O)C=C1CC[C@H]1[C@@H]3CC[C@](OC(=O)c4ccc(F)c(N)c4)(C(=O)SCF)[C@@]3(C)C[C@H](O)[C@@]12F` [A-2]: in experiment [1], the concentration for a half-maximal effect (EC50) worked out at 1.7 nM and the Emax was determined as 93.7%.

Turning to `C[C@@H]1C[C@H]2[C@@H]3C[C@H](F)C4=CC(=O)C=C[C@]4(C)[C@@]3(F)[C@@H](O)C[C@]2(C)[C@@]1(OC(=O)c1cccc(O)c1)C(=O)SCF` [B-1], in experiment [2], a half-maximal response (EC50) required 0.19 nM, the Emax is 105% and the “maximum agonistic effect (Emax)” value was “superior to dexamethasone”.

On to `C[C@@H]1C[C@H]2[C@@H]3C[C@H](F)C4=CC(=O)C=C[C@]4(C)[C@@]3(F)[C@@H](O)C[C@]2(C)[C@@]1(OC(=O)c1ccc(O)cc1)C(=O)SCF` [B-13], for which, in experiment [2], the response was half-maximal at 0.27 nM (EC50) and the Emax was determined as 100%.

Regarding `C[C@@H]1C[C@H]2[C@@H]3C[C@H](F)C4=CC(=O)C=C[C@]4(C)[C@@]3(F)[C@@H](O)C[C@]2(C)[C@@]1(OC(=O)c1ccccc1O)C(=O)SCF` [B-25], in experiment [2], the 50% effective concentration (EC50) came to 0.13 nM and the Emax is 85.6%.

In experiment [1], `C[C@@H]1C[C@H]2[C@@H]3C[C@H](F)C4=CC(=O)C=C[C@]4(C)[C@@]3(F)[C@@H](O)C[C@]2(C)[C@@]1(OC(=O)c1ccc(CO)cc1)C(=O)SCF` [B-31, (6S,8S,9R,10S,11S,13S,14S,16R,17R)-6,9-difluoro-17-(((fluoromethyl)thio)carbonyl)-11-hydroxy-10,13,16-trimethyl-3-oxo-6,7,8,9,10,11,12,13,14,15,16,17-dodecahydro-3H-cyclopenta[a]phenanthren-17-yl 4-(hydroxymethyl)benzoate] had an EC50 of 0.32 nM and an Emax of 92.5%.

`C[C@@H]1C[C@H]2[C@@H]3C[C@H](F)C4=CC(=O)C=C[C@]4(C)[C@@]3(F)[C@@H](O)C[C@]2(C)[C@@]1(OC(=O)c1cccc(CO)c1)C(=O)SCF` [B-35, (6S,8S,9R,10S,11S,13S,14S,16R,17R)-6,9-difluoro-17-(((fluoromethyl)thio)carbonyl)-11-hydroxy-10,13,16-trimethyl-3-oxo-6,7,8,9,10,11,12,13,14,15,16,17-dodecahydro-3H-cyclopenta[a]phenanthren-17-yl 3-(hydroxymethyl)benzoate]: in experiment [1], the EC50 was 2.4 nM and the Emax worked out at 66.2%.

`C[C@@H]1C[C@H]2[C@@H]3C[C@H](F)C4=CC(=O)C=C[C@]4(C)[C@@]3(F)[C@@H](O)C[C@]2(C)[C@@]1(OC(=O)[C@H]1C[C@@H]1c1ccc(N)cc1)C(=O)SCF` [C-1]: in experiment [2], the EC50 was 0.9 nM, the maximal response (Emax) worked out at 102% and the “maximum agonistic effect (Emax)” value was “superior to dexamethasone”.

Take `CC(O)C(=O)O[C@]1(C(=O)SCF)[C@H](C)C[C@H]2[C@@H]3C[C@H](F)C4=CC(=O)C=C[C@]4(C)[C@@]3(F)[C@@H](O)C[C@@]21C` (stereo partly drawn) [D-9]: in experiment [1], it took 3.6 nM to reach a half-maximal effect (EC50), the Emax came to 146% and the “maximum agonistic activity (Emax)” value is “superior to dexamethasone”.

Regarding `CC(O)CC(=O)O[C@]1(C(=O)SCF)[C@H](C)C[C@H]2[C@@H]3C[C@H](F)C4=CC(=O)C=C[C@]4(C)[C@@]3(F)[C@@H](O)C[C@@]21C` (stereo partly drawn) [D-11], in experiment [1], the response was half-maximal at 0.8 nM (EC50), the Emax was found to be 115% and the “maximum agonistic activity (Emax)” value is listed as “superior to dexamethasone”.

On to `C[C@@H]1C[C@H]2[C@@H]3C[C@H](F)C4=CC(=O)C=C[C@]4(C)[C@@]3(F)[C@@H](O)C[C@]2(C)[C@@]1(OC(=O)C[C@@H](C)O)C(=O)SCF` [D-19, (6S,8S,9R,10S,11S,13S,14S,16R,17R)-6,9-difluoro-17-(((fluoromethyl)thio)carbonyl)-11-hydroxy-10,13,16-trimethyl-3-oxo-6,7,8,9,10,11,12,13,14,15,16,17-dodecahydro-3H-cyclopenta[a]phenanthren-17-yl (R)-3-hydroxybutyrate], for which, in experiment [1], a half-maximal response (EC50) required 1.2 nM, the maximum response (Emax) is 120% and the “maximum agonistic activity (Emax)” value was “superior to dexamethasone”.

For the compound `C[C@@H]1C[C@H]2[C@@H]3C[C@H](F)C4=CC(=O)C=C[C@]4(C)[C@@]3(F)[C@@H](O)C[C@]2(C)[C@@]1(OC(=O)/C=C/c1ccc(F)c(N)c1)C(=O)SCF` [E-3], in experiment [2], the EC50 is 1.2 nM and the maximum response (Emax) is 97.2%.

Take `C[C@]12C=CC(=O)C=C1[C@@H](F)C[C@H]1[C@@H]3CC[C@](OC(=O)/C=C/c4ccc(F)c(N)c4)(C(=O)SCF)[C@@]3(C)C[C@H](O)[C@@]12F` [E-4]: in experiment [1], it took 1 nM to reach a half-maximal effect (EC50) and the Emax was 84.8%.

In the case of `C[C@@H]1C[C@H]2[C@@H]3C[C@H](F)C4=CC(=O)C=C[C@]4(C)[C@@]3(F)[C@@H](O)C[C@]2(C)[C@@]1(OC(=O)c1cc(N)co1)C(=O)SCF` [F-2, (6S,8S,9R,10S,11S,13S,14S,16R,17R)-6,9-difluoro-17-(((fluoromethyl)thio)carbonyl)-11-hydroxy-10,13,16-trimethyl-3-oxo-6,7,8,9,10,11,12,13,14,15,16,17-dodecahydro-3H-cyclopenta[a]phenanthren-17-yl 4-aminofuran-2-carboxylate], in experiment [2], the midpoint of the response, the EC50, lay at 1.2 nM; the Emax is 125%; the “maximum agonistic effect (Emax)” value is reported as “superior to dexamethasone”.

Consider `C[C@@H]1C[C@H]2[C@@H]3C[C@H](F)C4=CC(=O)C=C[C@]4(C)[C@@]3(F)[C@@H](O)C[C@]2(C)[C@@]1(OC(=O)c1cc(CO)co1)C(=O)SCF` [F-9, (6S,8S,9R,10S,11S,13S,14S,16R,17R)-6,9-difluoro-17-(((fluoromethyl)thio)carbonyl)-11-hydroxy-10,13,16-trimethyl-3-oxo-6,7,8,9,10,11,12,13,14,15,16,17-dodecahydro-3H-cyclopenta[a]phenanthren-17-yl 4-(hydroxymethyl)furan-2-carboxylate], for which, in experiment [1], a half-maximal response (EC50) required 0.4 nM, the Emax came to 134% and the “maximum agonistic activity (Emax)” value is given as “superior to dexamethasone”.

As to `C[C@]12C=CC(=O)C=C1[C@@H](F)C[C@H]1[C@@H]3CC[C@](OC(=O)c4cc(CO)co4)(C(=O)SCF)[C@@]3(C)C[C@H](O)[C@@]12F` [F-10], in experiment [1], the EC50 was 0.6 nM, the Emax is 150% and the “maximum agonistic activity (Emax)” value is on record as “superior to dexamethasone”.

Consider `C[C@@H]1C[C@H]2[C@@H]3C[C@H](F)C4=CC(=O)C=C[C@]4(C)[C@@]3(F)[C@@H](O)C[C@]2(C)[C@@]1(OC(=O)c1ccc(CO)o1)C(=O)SCF` [F-13, (6S,8S,9R,10S,11S,13S,14S,16R,17R)-6,9-difluoro-17-(((fluoromethyl)thio)carbonyl)-11-hydroxy-10,13,16-trimethyl-3-oxo-6,7,8,9,10,11,12,13,14,15,16,17-dodecahydro-3H-cyclopenta[a]phenanthren-17-yl 5-(hydroxymethyl)furan-2-carboxylate], for which, in experiment [1], the response was half-maximal at 1.3 nM (EC50) and the Emax is 104%.

Turning to `C[C@@H]1C[C@H]2[C@@H]3C[C@H](F)C4=CC(=O)C=C[C@]4(C)[C@@]3(F)[C@@H](O)C[C@]2(C)[C@@]1(OC(=O)c1ccco1)C(=O)SCCO` [F-21, (6S,8S,9R,10S,11S,13S,14S,16R,17R)-6,9-difluoro-11-hydroxy-17-((2-hydroxyethyl)thio)carbonyl-10,13,16-trimethyl-3-oxo-6,7,8,9,11,12,13,14,15,16,17-dodecahydro-3H-cyclopenta[a]phenanthren-17-yl furan-2-carboxylate], in experiment [1], the midpoint of the response, the EC50, lay at 1.3 nM; the maximal effect (Emax) came to 139%; the “maximum agonistic activity (Emax)” value is on record as “superior to dexamethasone”.

On to `C[C@@H]1C[C@H]2[C@@H]3C[C@H](F)C4=CC(=O)C=C[C@]4(C)[C@@]3(F)[C@@H](O)C[C@]2(C)[C@@]1(OC(=O)c1ccccc1)C(=O)SCF` [H-1, (6S,8S,9R,10S,11S,13S,14S,16R,17R)-6,9-difluoro-17-((fluoromethyl)thio)carbonyl)-11-hydroxy-10,13,16-trimethyl-3-oxo-6,7,8,9,10,11,12,13,14,15,16,17-dodecahydro-3H-cyclopenta[a]phenanthren-17-yl benzoate], for which, in experiment [2], the EC50 was determined as 0.18 nM, the Emax was determined as 110% and the “maximum agonistic effect (Emax)” value is “superior to dexamethasone”.

The record behind these values is US20260199497A1, “GLUCOCORTICOID RECEPTOR AGONIST AND CONJUGATE THEREOF” (priority 2023, published 2026).
